Test results reported in the supplement of paper PMC10307832.

Experiments:
Assay in all cases: relative viability (nuclei count vs DMSO), 5 days (fraction); higher = more cells survive
A-427 = tested on: A-427
How it was run: (§1)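 Nuclei were stained with Hoechst during a one-step fixation (final 0.05% Triton X-100, 1% formaldehyde, 1 ug/ml Hoechst) carried out 5 days after dosing, then counted on 4× images. The cells, lung cancer lines in 1536-well plates, had been dosed by pin tool the day after seeding with one drug alone or a fixed anchor-drug dose plus five library-drug doses (not always all listed) in √10 steps. Relative viability is the nuclei count in treated wells divided by that in vehicle wells, and each value is the median of duplicate plates.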

ABC-1 = tested on: ABC-1
How it was run: as §1

COR-L23 = tested on: COR-L23
How it was run: as §1

EMC-BAC-2 = tested on: EMC-BAC-2
How it was run: as §1

HARA = tested on: HARA
How it was run: as §1

HOP-62 = tested on: HOP-62
How it was run: as §1

LK-2 = tested on: LK-2
How it was run: as §1

LXF-289 = tested on: LXF-289
How it was run: as §1

NCI-H1792 = tested on: NCI-H1792
How it was run: as §1

NCI-H1793 = tested on: NCI-H1793
How it was run: as §1

NCI-H1944 = tested on: NCI-H1944
How it was run: as §1

NCI-H1993 = tested on: NCI-H1993
How it was run: as §1

NCI-H2009 = tested on: NCI-H2009
How it was run: as §1

NCI-H2170 = tested on: NCI-H2170
How it was run: as §1

NCI-H2228 = tested on: NCI-H2228
How it was run: as §1

NCI-H3122 = tested on: NCI-H3122
How it was run: as §1

NCI-H596 = tested on: NCI-H596
How it was run: as §1

NCI-H727 = tested on: NCI-H727
How it was run: as §1

PC-3 [JPC-3] = tested on: PC-3 [JPC-3]
How it was run: as §1

SK-LU-1 = tested on: SK-LU-1
How it was run: as §1

SK-MES-1 = tested on: SK-MES-1
How it was run: as §1

SW 1573 = tested on: SW 1573
How it was run: as §1

SW 900 = tested on: SW 900
How it was run: as §1

SMILES: Oc1nc(-c2ccc(C(F)(F)F)cc2)nc2c1CSCC2 [XAV939] + COc1cccc2cc(-c3nc([C@H]4CC[C@H](C(=O)O)CC4)n4ncnc(N)c34)[nH]c12 [OSI-027] (partner 0.5 µM)
- relative viability (A-427; first compound 0.08 µM): 0.49
- relative viability (A-427; first compound 0.253 µM): 0.427
- relative viability (A-427; first compound 0.8 µM): 0.419
- relative viability (A-427; first compound 2.53 µM): 0.393
- relative viability (ABC-1; first compound 0.08 µM): 0.44
- relative viability (ABC-1; first compound 0.253 µM): 0.532
- relative viability (ABC-1; first compound 0.8 µM): 0.374
- relative viability (ABC-1; first compound 2.53 µM): 0.28
- relative viability (COR-L23; first compound 0.08 µM): 0.824
- relative viability (COR-L23; first compound 0.253 µM): 0.765
- relative viability (COR-L23; first compound 0.8 µM): 0.77
- relative viability (COR-L23; first compound 2.53 µM): 0.618
- relative viability (EMC-BAC-2; first compound 0.08 µM): 0.402
- relative viability (EMC-BAC-2; first compound 0.253 µM): 0.344
- relative viability (EMC-BAC-2; first compound 0.8 µM): 0.319
- relative viability (EMC-BAC-2; first compound 2.53 µM): 0.236
- relative viability (HARA; first compound 0.08 µM): 0.436
- relative viability (HARA; first compound 0.253 µM): 0.424
- relative viability (HARA; first compound 0.8 µM): 0.3
- relative viability (HARA; first compound 2.53 µM): 0.467
- relative viability (HOP-62; first compound 0.08 µM): 1.01
- relative viability (HOP-62; first compound 0.253 µM): 0.773
- relative viability (HOP-62; first compound 0.8 µM): 0.763
- relative viability (HOP-62; first compound 2.53 µM): 0.574
- relative viability (LK-2; first compound 0.08 µM): 0.168
- relative viability (LK-2; first compound 0.253 µM): 0.232
- relative viability (LK-2; first compound 0.8 µM): 0.188
- relative viability (LK-2; first compound 2.53 µM): 0.206
- relative viability (LXF-289; first compound 0.08 µM): 0.817
- relative viability (LXF-289; first compound 0.253 µM): 0.721
- relative viability (LXF-289; first compound 0.8 µM): 0.746
- relative viability (LXF-289; first compound 2.53 µM): 0.658
- relative viability (NCI-H1792; first compound 0.08 µM): 0.82
- relative viability (NCI-H1792; first compound 0.253 µM): 0.677
- relative viability (NCI-H1792; first compound 0.8 µM): 0.839
- relative viability (NCI-H1792; first compound 2.53 µM): 0.672
- relative viability (NCI-H1793; first compound 0.08 µM): 0.308
- relative viability (NCI-H1793; first compound 0.253 µM): 0.232
- relative viability (NCI-H1793; first compound 0.8 µM): 0.298
- relative viability (NCI-H1793; first compound 2.53 µM): 0.27
- relative viability (NCI-H1944; first compound 0.08 µM): 0.441
- relative viability (NCI-H1944; first compound 0.253 µM): 0.393
- relative viability (NCI-H1944; first compound 0.8 µM): 0.403
- relative viability (NCI-H1944; first compound 2.53 µM): 0.367
- relative viability (NCI-H1993; first compound 0.08 µM): 0.563
- relative viability (NCI-H1993; first compound 0.253 µM): 0.493
- relative viability (NCI-H1993; first compound 0.8 µM): 0.596
- relative viability (NCI-H1993; first compound 2.53 µM): 0.461
- relative viability (NCI-H2009; first compound 0.08 µM): 0.676
- relative viability (NCI-H2009; first compound 0.253 µM): 0.561
- relative viability (NCI-H2009; first compound 0.8 µM): 0.507
- relative viability (NCI-H2009; first compound 2.53 µM): 0.369
- relative viability (NCI-H2170; first compound 0.08 µM): 0.749
- relative viability (NCI-H2170; first compound 0.253 µM): 0.493
- relative viability (NCI-H2170; first compound 0.8 µM): 0.643
- relative viability (NCI-H2170; first compound 2.53 µM): 0.611
- relative viability (NCI-H2228; first compound 0.08 µM): 0.704
- relative viability (NCI-H2228; first compound 0.253 µM): 0.467
- relative viability (NCI-H2228; first compound 0.8 µM): 0.479
- relative viability (NCI-H2228; first compound 2.53 µM): 0.546
- relative viability (NCI-H3122; first compound 0.08 µM): 1.08
- relative viability (NCI-H3122; first compound 0.253 µM): 0.96
- relative viability (NCI-H3122; first compound 0.8 µM): 0.91
- relative viability (NCI-H3122; first compound 2.53 µM): 0.581
- relative viability (NCI-H596; first compound 0.08 µM): 0.803
- relative viability (NCI-H596; first compound 0.253 µM): 0.796
- relative viability (NCI-H596; first compound 0.8 µM): 0.768
- relative viability (NCI-H596; first compound 2.53 µM): 0.622
- relative viability (NCI-H727; first compound 0.08 µM): 0.696
- relative viability (NCI-H727; first compound 0.253 µM): 0.495
- relative viability (NCI-H727; first compound 0.8 µM): 0.744
- relative viability (NCI-H727; first compound 2.53 µM): 0.514
- relative viability (PC-3 [JPC-3]; first compound 0.08 µM): 0.756
- relative viability (PC-3 [JPC-3]; first compound 0.253 µM): 0.611
- relative viability (PC-3 [JPC-3]; first compound 0.8 µM): 0.777
- relative viability (PC-3 [JPC-3]; first compound 2.53 µM): 0.599
- relative viability (SK-LU-1; first compound 0.08 µM): 0.387
- relative viability (SK-LU-1; first compound 0.253 µM): 0.339
- relative viability (SK-LU-1; first compound 0.8 µM): 0.394
- relative viability (SK-LU-1; first compound 2.53 µM): 0.34
- relative viability (SK-MES-1; first compound 0.08 µM): 0.576
- relative viability (SK-MES-1; first compound 0.253 µM): 0.584
- relative viability (SK-MES-1; first compound 0.8 µM): 0.631
- relative viability (SK-MES-1; first compound 2.53 µM): 0.424
- relative viability (SW 1573; first compound 0.08 µM): 0.602
- relative viability (SW 1573; first compound 0.253 µM): 0.556
- relative viability (SW 1573; first compound 0.8 µM): 0.542
- relative viability (SW 1573; first compound 2.53 µM): 0.494
- relative viability (SW 900; first compound 0.08 µM): 0.779
- relative viability (SW 900; first compound 0.253 µM): 0.572
- relative viability (SW 900; first compound 0.8 µM): 0.687
- relative viability (SW 900; first compound 2.53 µM): 0.476
